PMC8001704, “A Review of Red Yeast Rice, a Traditional Fermented Food in Japan and East Asia: Its Characteristic Ingredients and Application in the Maintenance and Improvement of Health in Lipid Metabolism and the Circulatory System” (Molecules, 2021)
Like-named read-outs stand apart in the source and are kept apart here. Each block holds one compound with its values, some of them ahead of it.

Columns and labels:
[1] = design: method as in PMID 16256107, PMID 8930162; conditions: cited from earlier work
[2] = tested on: presynaptic GABA receptors; design: method as in PMID 10369462, PMID 11906718; conditions: through reduction of adrenergic vasoconstriction; cited from earlier work
[3] = tested on: Squamous epithelial cancer cells; design: method as in PMID 20562912; conditions: cited from earlier work
[4] = tested on: Hypertensive model mice; design: method as in PMID 10405198; conditions: cited from earlier work
[5] = tested on: Mesenchymal stem cells derived from rat bone marrow; design: method as in PMID 17497701; conditions: cited from earlier work
[6] = tested on: cholesterol synthesis; conditions: cited from earlier work
[7] = Pharmacokinetics of monacolin K in plasma after single oral administration of purified monacolin K or red yeast rice; format: in vivo, male SD rats; conditions: for AUC(0-t) / Cmax: male, SD, rat, po
Source text: Recently, we compared the pharmacokinetics of monacolin K in blood after oral administration of purified monacolin K (lactone form, 99% purity) and red yeast rice produced by solid-state fermentation in male SD rats (7 weeks old). Most of the monacolin K in the plasma was detected in its acid form: both in the monacolin K-administered group and the red yeast rice -administered group. […] The medicinal benefit of red yeast rice is considered to be different to that of monacolin K alone. […] Since red yeast rice contains various ingredients, synergistic effects are expected.
Figure 14 Plasma concentrations of lactone form and acid form of monacolin K after single administration of purified monacolin K or red yeast rice (40 mg/kg monacolin K or dose of red yeast rice equivalent to 40 mg/kg monacolin K) in male SD rats (7 weeks old). Each bar indicates the mean ± standard deviation, quantified according to the reference method.

[8] = tested on: Human umbilical vein endothelial cells (HUVECs); design: method as in PMID 16141529; conditions: cited from earlier work
[9] = tested on: experimental animals; design: method as in PMID 22929438; conditions: Several studies using experimental animals; cited from earlier work
[10] = tested on: Cardiac myocytes; design: method as in PMID 11444504; conditions: cited from earlier work
[11] = design: method as in PMID 23675421, PMID 7830729; conditions: cited from earlier work
[12] = design: method as in PMID 27014344, doi:10.17546/msd.58298; conditions: cited from earlier work
[13] = tested on: Rabbits fed on a high-lipid diet; design: method as in PMID 1376794; conditions: cited from earlier work
[14] = tested on: Patients with hypercholesterolemia; design: method as in PMID 9456275; conditions: cited from earlier work
[15] = tested on: peroxisome proliferator-activated receptors (PPARs), e.g., PPARα; design: method as in PMID 24275089; conditions: cited from earlier work
[16] = design: method as in PMID 27422746; conditions: cited from earlier work
[17] = plasma, single administration, 40 mg/kg monacolin K or equivalent, individual rats 101-103, 201-203, 40 mg/kg

SMILES: NCCCC(=O)O [GABA, γ-amino butyric acid]
increases in blood pressure [1]: suppresses | sodium excretion from the kidneys [1]: promotes | effect on blood pressure [2]: hypotensive effect

form in which most of the monacolin K in the plasma was detected ([7]; after oral administration, male SD rats): acid form | AUC(0-t) ([7]; plasma, 40 mg/kg, plasma, single administration, 40 mg/kg monacolin K or equivalent dose of red yeast rice, male SD rats, mean, read-out: AUC0–4h of monacolin K lactone, Mean): 2.48 ng·h/mL | Cmax ([7]; plasma, 40 mg/kg, plasma, single administration, 40 mg/kg monacolin K or equivalent dose of red yeast rice, male SD rats, mean, read-out: Cmax of monacolin K lactone, Mean): 2.48 ng/mL | AUC(0-t) ([7]; plasma, 40 mg/kg, plasma, single administration, 40 mg/kg monacolin K or equivalent, individual rats 101-103, 201-203, read-out: AUC0–4h of monacolin K lactone, individual animals): 3.11 ng·h/mL | Cmax ([7]; plasma, 40 mg/kg, plasma, single administration, 40 mg/kg monacolin K or equivalent, individual rats 101-103, 201-203, read-out: Cmax of monacolin K lactone, individual animals): 3.11 ng/mL | AUC0–4h of monacolin K lactone, individual animals [7, 17]: 1.85 ng·h/mL | Cmax of monacolin K lactone, individual animals [7, 17]: 1.85 ng/mL
SMILES: CC[C@H](C)C(=O)O[C@H]1C[C@@H](C)C=C2C=C[C@H](C)[C@H](CC[C@@H]3C[C@@H](O)CC(=O)O3)[C@H]21 [Monacolin K, monacolin K]
Effect of Monacolin K, NOS signaling pathway [3]: Induction of expression of Rho family proteins | Effect of Monacolin K, blood circulation [4]: Increase in renal blood flow | Effect of Monacolin K, NOS signaling pathway [5]: Activation (phosphorylation) of AI3K/Akt pathway and MEK 1/2 pathway | inhibition of cholesterol synthesis [6]: potent inhibitor of cholesterol synthesis | Effect of Monacolin K, atheroma formation [8]: Inhibition of NF-KB activation by CRP | Effect of Monacolin K, blood circulation [9]: Increase in cerebral blood flow and cerebral vasomotor response | Effect of Monacolin K, NOS signaling pathway [10]: Increase of IL-1 induced production of nitrite (Increase in NOS expression and NO production mediated by Rho inhibition) | oxidation of LDL [11]: inhibits | vascular endothelial function (vasoconstrictor reaction) ([11]; in hyperlipidemia): improves | plasma viscosity [12]: decrease plasma viscosity | Effect of Monacolin K, atheroma formation [13]: Decrease in number of plaques in the aorta and lung artery | Effect of Monacolin K, atheroma formation [14]: Inhibition of platelet aggregation, macrophage foam cell formation and LDL oxidation

SMILES: C/C=C/C1=CC2=C(CO1)C(=O)[C@]1(C)OC(=O)[C@H](C(=O)CCCCCCC)[C@H]1C2 [ankaflavin]
action on PPARs, e.g., PPARα [15]: agonist | LDL-cholesterol oxidation [16]: suppressed

SMILES: O=C1[C@H](CC[C@H](O)c2ccc(F)cc2)[C@@H](c2ccc(O)cc2)N1c1ccc(F)cc1 [ezetimibe]
plasma viscosity [12]: decrease plasma viscosity

SMILES: C/C=C/C1=CC2=C(CO1)C(=O)[C@]1(C)OC(=O)[C@H](C(=O)CCCCC)[C@H]1C2 [monascin]
action on PPARs, e.g., PPARα [15]: agonist | LDL-cholesterol oxidation [16]: suppressed
